Values after ≈ are worked out from the molar mass of the structure shown.
What was measured:
Vitamin D3 receptor = molecular target: T1, Vitamin D3 receptor (Homo sapiens, UniProt P11473); experiment: Antagonist activity at CMV-fused VDR (unknown origin) expressed in HEK293T cells assessed as reduction in 24-hydroxylase promoter mediated transcriptional activity by luciferase reporter gene assay; format: cell-based; conditions: read-out: IC50
T1 sequence (P11473 whole entry): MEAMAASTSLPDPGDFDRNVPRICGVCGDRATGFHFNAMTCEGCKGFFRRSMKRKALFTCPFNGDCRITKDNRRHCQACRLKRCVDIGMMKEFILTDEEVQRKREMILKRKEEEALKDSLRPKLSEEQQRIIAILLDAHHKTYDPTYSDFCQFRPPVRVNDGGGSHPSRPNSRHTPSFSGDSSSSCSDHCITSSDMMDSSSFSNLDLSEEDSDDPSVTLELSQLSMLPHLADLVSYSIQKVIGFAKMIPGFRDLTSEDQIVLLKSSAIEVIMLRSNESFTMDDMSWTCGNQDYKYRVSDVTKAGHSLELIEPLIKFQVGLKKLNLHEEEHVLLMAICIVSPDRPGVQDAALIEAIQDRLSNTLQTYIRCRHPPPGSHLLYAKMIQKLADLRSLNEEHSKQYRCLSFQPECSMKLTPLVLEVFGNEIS

[1] = molecular target: T2, Peroxisome proliferator-activated receptor delta (Homo sapiens, UniProt Q03181); experiment: Antagonist activity at CMV-fused PPARdelta-LBD-GAL4-DBD (unknown origin) expressed in HEK293T cells assessed as inhibition of GW0742-induced receptor transactivation after 16 hrs by bright-Glo luciferase reporter gene assay; format: cell-based
T2 sequence (Q03181 whole entry): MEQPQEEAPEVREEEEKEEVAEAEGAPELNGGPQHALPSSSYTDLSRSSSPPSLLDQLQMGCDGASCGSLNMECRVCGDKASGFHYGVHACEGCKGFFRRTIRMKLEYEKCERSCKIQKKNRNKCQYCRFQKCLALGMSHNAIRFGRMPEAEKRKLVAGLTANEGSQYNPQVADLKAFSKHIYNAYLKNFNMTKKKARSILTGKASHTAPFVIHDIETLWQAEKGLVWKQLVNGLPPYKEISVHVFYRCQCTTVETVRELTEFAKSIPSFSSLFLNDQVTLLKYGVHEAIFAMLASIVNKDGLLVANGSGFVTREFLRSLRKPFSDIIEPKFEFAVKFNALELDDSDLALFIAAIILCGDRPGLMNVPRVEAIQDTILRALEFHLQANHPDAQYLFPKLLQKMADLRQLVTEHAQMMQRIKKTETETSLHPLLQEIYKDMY

HEK-293T = experiment: Cytotoxicity against HEK293T cells assessed as decrease in cell viability at 100 uM after 18 hrs by Cell Titer-Glo based luminescence assay relative to control; conditions: human
[2] = molecular target: T3, Thyroid hormone receptor beta (Homo sapiens, UniProt P10828); experiment: Antagonist activity at CMV-fused TRbeta-LBD-GAL4-DBD (unknown origin) expressed in HEK293T cells assessed as inhibition of T3-induced receptor transactivation after 16 hrs by bright-Glo luciferase reporter gene assay; format: cell-based
T3 sequence (P10828 whole entry): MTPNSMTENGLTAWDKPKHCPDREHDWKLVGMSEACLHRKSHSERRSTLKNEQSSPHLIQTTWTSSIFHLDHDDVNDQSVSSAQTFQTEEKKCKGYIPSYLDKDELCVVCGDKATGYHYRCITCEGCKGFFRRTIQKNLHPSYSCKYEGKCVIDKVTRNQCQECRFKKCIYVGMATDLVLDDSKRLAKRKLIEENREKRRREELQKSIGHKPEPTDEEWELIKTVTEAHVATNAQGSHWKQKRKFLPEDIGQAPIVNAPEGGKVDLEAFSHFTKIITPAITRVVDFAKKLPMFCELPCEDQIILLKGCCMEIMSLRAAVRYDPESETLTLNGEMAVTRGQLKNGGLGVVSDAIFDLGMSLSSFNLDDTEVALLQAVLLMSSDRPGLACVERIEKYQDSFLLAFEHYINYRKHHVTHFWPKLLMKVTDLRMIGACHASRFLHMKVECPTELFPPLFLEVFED

Estrogen receptor beta = Estrogen receptor beta (Homo sapiens, UniProt Q92731); experiment: Antagonist activity at CMV-fused ERbeta-LBD-GAL4-DBD (unknown origin) expressed in HEK293T cells assessed as inhibition of estradiol-induced receptor transactivation after 16 hrs by bright-Glo luciferase reporter gene assay; format: cell-based
Chain of Estrogen receptor beta (Q92731 whole entry, the tested form may be a part): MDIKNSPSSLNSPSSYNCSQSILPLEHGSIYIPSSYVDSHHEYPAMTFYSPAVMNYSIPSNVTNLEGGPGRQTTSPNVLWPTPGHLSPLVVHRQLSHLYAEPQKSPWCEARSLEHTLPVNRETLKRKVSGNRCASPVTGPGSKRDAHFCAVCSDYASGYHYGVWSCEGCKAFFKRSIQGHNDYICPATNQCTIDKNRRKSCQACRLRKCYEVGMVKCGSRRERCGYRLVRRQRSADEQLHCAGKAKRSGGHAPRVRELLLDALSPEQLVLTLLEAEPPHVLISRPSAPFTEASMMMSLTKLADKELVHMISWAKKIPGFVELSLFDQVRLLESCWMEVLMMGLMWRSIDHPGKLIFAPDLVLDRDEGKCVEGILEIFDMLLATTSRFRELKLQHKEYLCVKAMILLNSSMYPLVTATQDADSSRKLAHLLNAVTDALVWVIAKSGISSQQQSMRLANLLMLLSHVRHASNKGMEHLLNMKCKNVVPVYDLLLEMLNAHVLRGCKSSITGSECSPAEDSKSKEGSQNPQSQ

[3] = molecular target: T4, Thyroid hormone receptor alpha (Homo sapiens, UniProt P10827); experiment: Antagonist activity at CMV-fused TRalpha-LBD-GAL4-DBD (unknown origin) expressed in HEK293T cells assessed as inhibition of T3-induced receptor transactivation after 16 hrs by bright-Glo luciferase reporter gene assay; format: cell-based
T4 sequence (P10827 whole entry): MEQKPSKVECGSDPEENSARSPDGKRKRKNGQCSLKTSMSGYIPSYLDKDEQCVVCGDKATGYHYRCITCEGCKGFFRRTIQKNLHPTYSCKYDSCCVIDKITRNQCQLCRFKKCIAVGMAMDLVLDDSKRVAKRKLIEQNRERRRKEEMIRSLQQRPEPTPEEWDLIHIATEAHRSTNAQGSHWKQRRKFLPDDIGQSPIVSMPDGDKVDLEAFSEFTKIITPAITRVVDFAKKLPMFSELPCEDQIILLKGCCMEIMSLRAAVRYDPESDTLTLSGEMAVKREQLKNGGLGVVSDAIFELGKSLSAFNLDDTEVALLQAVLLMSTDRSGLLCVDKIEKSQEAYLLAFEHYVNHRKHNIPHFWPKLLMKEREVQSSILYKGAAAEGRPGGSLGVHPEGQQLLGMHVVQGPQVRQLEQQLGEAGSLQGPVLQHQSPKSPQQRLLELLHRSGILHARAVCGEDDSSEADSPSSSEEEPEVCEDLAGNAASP

[4] = molecular target: T5, Peroxisome proliferator-activated receptor alpha (Homo sapiens, UniProt Q07869); experiment: Antagonist activity at CMV-fused PPARalpha-LBD-GAL4-DBD (unknown origin) expressed in HEK293T cells assessed as inhibition of GW7647-induced receptor transactivation after 16 hrs by bright-Glo luciferase reporter gene assay; format: cell-based
T5 sequence (Q07869 whole entry): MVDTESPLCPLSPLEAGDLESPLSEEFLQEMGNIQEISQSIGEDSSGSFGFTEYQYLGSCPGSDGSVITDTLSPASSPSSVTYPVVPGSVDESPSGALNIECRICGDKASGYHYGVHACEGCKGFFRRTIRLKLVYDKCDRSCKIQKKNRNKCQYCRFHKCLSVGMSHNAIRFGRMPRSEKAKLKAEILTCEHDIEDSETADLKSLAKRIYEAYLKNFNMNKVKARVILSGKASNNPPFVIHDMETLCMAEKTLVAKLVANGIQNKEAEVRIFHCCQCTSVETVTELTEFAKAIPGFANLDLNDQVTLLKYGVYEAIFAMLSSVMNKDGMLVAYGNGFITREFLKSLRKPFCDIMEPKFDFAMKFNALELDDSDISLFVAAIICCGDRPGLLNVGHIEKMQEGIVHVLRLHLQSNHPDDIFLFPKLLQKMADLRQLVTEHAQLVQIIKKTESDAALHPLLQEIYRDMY

[5] = Aqueous solubility of the compound in DMSO at 500 uM by filter based assay; format: physicochemical

| Compound | IC50 (Vitamin D3 receptor) [µM] | IC50 [1] [µM] | Activity (HEK-293T) [%] | IC50 [2] [µM] | IC50 (Estrogen receptor beta) [µM] | IC50 [3] [µM] | IC50 [4] [µM] | solubility kinetic at 500 µM [5] [µM] |
| --- | --- | --- | --- | --- | --- | --- | --- | --- |
| COC(=O)c1ccc(OCc2oc(-c3cccc(OC)c3)nc2C)cc1 | 5.67 | 10.9 | 35.6 | 8.8 | 5.9 | 5.4 | 3.5 | 18.5 (≈ 6.54 µg/mL) |
| COC(=O)c1cccc(OCc2oc(-c3ccccc3OC)nc2C)c1 | 2.5 | 10.9 | 39.5 | 9.8 | 23.6 | 10.1 | 6.6 | 44.1 (≈ 15.6 µg/mL) |
| COC(=O)Cc1ccc(OCc2oc(-c3ccccc3OC)nc2C)cc1 | 3.82 | 6.6 | 31.2 | 7.6 | 10 | 8.4 | 8 | 61.6 (≈ 22.6 µg/mL) |
| COC(=O)Cc1ccc(OCc2oc(-c3cccc(OC)c3)nc2C)cc1 | 0.66 | 11.3 | 63.4 | 0.97 | 7.4 | 4.2 | 1.9 | 45.3 (≈ 16.6 µg/mL) |
